Values after ≈ are worked out from the molar mass of the structure shown. Active and inactive are the calls of the source. The calls are words filed in the database; no cut-off is given here.
Tests used:
[1] = target: DNA topoisomerase 2-alpha (Homo sapiens) (UniProt P11388); test: Inhibition of human DNA topoisomerase II alpha assessed as residual activity at 100 uM using supercoiled pNO1 plasmid as substrate incubated for 30 mins by diamond dye staining based fluorescence microplate reader assay relative to control
[2] = target: DNA topoisomerase 2-alpha (Homo sapiens) (UniProt P11388); test: Inhibition of human DNA topoisomerase II alpha assessed as residual activity at 10 uM using supercoiled pNO1 plasmid as substrate incubated for 30 mins by diamond dye staining based fluorescence microplate reader assay relative to control
[3] = test system: Mycobacteroides abscessus; test: Antimycobacterial activity against Mycobacterium abscessus RIVM incubated for 1 day by resazurin reduction microplate assay; assay type: functional; settings: 24 h
[4] = test system: Mycolicibacterium smegmatis; test: Antimycobacterial activity against Mycobacterium smegmatis MC2 incubated for 2 days by resazurin reduction microplate assay; assay type: functional; settings: MC2, 48 h, time 2 day
[5] = test system: Mycobacterium tuberculosis; test: Antimycobacterial activity against Mycobacterium tuberculosis H37Rv ATCC 25618 assessed as reduction in viability incubated for 6 days by resazurin reduction microplate assay; assay type: functional; settings: H37Rv ATCC 25618, 144 h, time 6 day
Pseudomonas aeruginosa = test: Antibacterial activity against Pseudomonas aeruginosa ATCC 27853 incubated for 18 hrs by serial broth microdilution method; assay type: functional
Escherichia coli [6] = test: Antibacterial activity against Escherichia coli ATCC 25922 harboring deltaTolC mutant incubated for 18 hrs by serial broth microdilution method; assay type: functional
Acinetobacter baumannii = test: Antibacterial activity against Acinetobacter baumannii ATCC17978 incubated for 18 hrs by serial broth microdilution method; assay type: functional
Klebsiella pneumoniae = test: Antibacterial activity against Klebsiella pneumoniae ATCC10031 incubated for 18 hrs by serial broth microdilution method; assay type: functional
Escherichia coli [7] = test: Antibacterial activity against Escherichia coli ATCC 25922 incubated for 18 hrs by serial broth microdilution method; assay type: functional
Staphylococcus aureus = test: Antibacterial activity against Staphylococcus aureus ATCC 29213 incubated for 18 hrs by serial broth microdilution method; assay type: functional
[8] = Inhibition of Mycobacterium tuberculosis DNA gyrase B
[9] = test system: Mycobacterium tuberculosis; test: Antimycobacterial activity against Mycobacterium tuberculosis H37Rv ATCC 25618 assessed as reduction in viability at 5 uM incubated for 6 days by resazurin reduction microplate assay; assay type: functional; settings: time 6.0 day
[10] = test system: Mycobacterium tuberculosis; test: (§1) Antimycobacterial activity against GFP-expressing Mycobacterium tuberculosis H37Rv infected in PMA-treated THP-1 cells assessed as bacterial viability at 10 uM pre-infected for 3 hrs prior to gentamycin addition for 1 hr followed by washout and compound addition measured after 4 days by fluorescence microscopic analysis (reference value: 100%); assay type: functional; settings: time 4 day
Enterobacter cloacae = test: Antibacterial activity against Enterobacter cloacae ATCC13047 incubated for 18 hrs by serial broth microdilution method; assay type: functional
[11] = test system: Mycobacterium tuberculosis; test: as §1, with “increase in number of surviving macrophages” for “bacterial viability”, “1 to 30” for “10”, “analysis” for “analysis (reference value: 100%)”; assay type: functional, organism-based; settings: dose 1-30 µM, time 4.0 day
[12] = test system: Mycobacterium tuberculosis; test: as §1, with “viability” for “viability at 10 uM”, “analysis” for “analysis (reference value: 100%)”; assay type: functional, organism-based; settings: dose 1-30 µM, time 4.0 day
[13] = Acute toxicity in zebrafish embryo assessed as change in behavior upto 5 mM measured for 4 days; design: species or system Danio rerio; settings: in vivo, 96 h, 5000 µM, time 4 day
[14] = Protein binding in human plasma assessed as free fraction at 10 uM incubated for 4 hrs by rapid equilibrium dialysis based LC-MS/MS method; assay type: ADME, cell-free
THP-1 [15] = test: Cytotoxicity against replicating human THP-1 cells upto 40 uM; assay type: toxicity, cell-based; settings: thp-1, 40 µM
THP-1 [16] = test: Cytotoxicity against human THP-1 cells assessed as reduction in viability at 40 uM pretreated with PMA for 48 hrs followed by washout and compound addition for 5 days by resazurin sodium salt method; assay type: toxicity, cell-based; settings: thp-1, 120 h, time 5 day
[17] = Protein binding in mouse plasma assessed as free fraction at 10 uM incubated for 4 hrs by rapid equilibrium dialysis based LC-MS/MS method; assay type: ADME, cell-free
[18] = Acute toxicity in zebrafish embryo assessed as effect on embryo development upto 5 mM measured for 4 days; design: species or system Danio rerio; settings: in vivo, 96 h, 5000 µM, time 4 day
Anaerostipes hadrus = test: Antibacterial activity against Anaerostipes hadrus DSM 3319 measured at 15 mins interval for 24 hrs by broth microdilution method; assay type: functional
[19] = Kinetic solubility of compound in PBS at 100 uM incubated for 20 hrs in shaker by LC-MS/MS analysis; assay type: physicochemical; settings: read-out: Kinetic_solubility
Segatella copri = test: Antibacterial activity against Prevotella copri DSM 18205 measured at 15 mins interval for 24 hrs by broth microdilution method; assay type: functional
[20] = Acute toxicity in zebrafish embryo assessed as effect on embryo survival upto 5 mM measured for 4 days; design: species or system Danio rerio; settings: in vivo, 96 h, 5000 µM, time 4 day
[21] = test system: Bacteroides thetaiotaomicron; test: Antibacterial activity against Bacteroides thetaiotaomicron DSM 2079 measured at 15 mins interval for 24 hrs by broth microdilution method; assay type: functional

Sequence of DNA topoisomerase 2-alpha (Homo sapiens) (P11388 whole entry): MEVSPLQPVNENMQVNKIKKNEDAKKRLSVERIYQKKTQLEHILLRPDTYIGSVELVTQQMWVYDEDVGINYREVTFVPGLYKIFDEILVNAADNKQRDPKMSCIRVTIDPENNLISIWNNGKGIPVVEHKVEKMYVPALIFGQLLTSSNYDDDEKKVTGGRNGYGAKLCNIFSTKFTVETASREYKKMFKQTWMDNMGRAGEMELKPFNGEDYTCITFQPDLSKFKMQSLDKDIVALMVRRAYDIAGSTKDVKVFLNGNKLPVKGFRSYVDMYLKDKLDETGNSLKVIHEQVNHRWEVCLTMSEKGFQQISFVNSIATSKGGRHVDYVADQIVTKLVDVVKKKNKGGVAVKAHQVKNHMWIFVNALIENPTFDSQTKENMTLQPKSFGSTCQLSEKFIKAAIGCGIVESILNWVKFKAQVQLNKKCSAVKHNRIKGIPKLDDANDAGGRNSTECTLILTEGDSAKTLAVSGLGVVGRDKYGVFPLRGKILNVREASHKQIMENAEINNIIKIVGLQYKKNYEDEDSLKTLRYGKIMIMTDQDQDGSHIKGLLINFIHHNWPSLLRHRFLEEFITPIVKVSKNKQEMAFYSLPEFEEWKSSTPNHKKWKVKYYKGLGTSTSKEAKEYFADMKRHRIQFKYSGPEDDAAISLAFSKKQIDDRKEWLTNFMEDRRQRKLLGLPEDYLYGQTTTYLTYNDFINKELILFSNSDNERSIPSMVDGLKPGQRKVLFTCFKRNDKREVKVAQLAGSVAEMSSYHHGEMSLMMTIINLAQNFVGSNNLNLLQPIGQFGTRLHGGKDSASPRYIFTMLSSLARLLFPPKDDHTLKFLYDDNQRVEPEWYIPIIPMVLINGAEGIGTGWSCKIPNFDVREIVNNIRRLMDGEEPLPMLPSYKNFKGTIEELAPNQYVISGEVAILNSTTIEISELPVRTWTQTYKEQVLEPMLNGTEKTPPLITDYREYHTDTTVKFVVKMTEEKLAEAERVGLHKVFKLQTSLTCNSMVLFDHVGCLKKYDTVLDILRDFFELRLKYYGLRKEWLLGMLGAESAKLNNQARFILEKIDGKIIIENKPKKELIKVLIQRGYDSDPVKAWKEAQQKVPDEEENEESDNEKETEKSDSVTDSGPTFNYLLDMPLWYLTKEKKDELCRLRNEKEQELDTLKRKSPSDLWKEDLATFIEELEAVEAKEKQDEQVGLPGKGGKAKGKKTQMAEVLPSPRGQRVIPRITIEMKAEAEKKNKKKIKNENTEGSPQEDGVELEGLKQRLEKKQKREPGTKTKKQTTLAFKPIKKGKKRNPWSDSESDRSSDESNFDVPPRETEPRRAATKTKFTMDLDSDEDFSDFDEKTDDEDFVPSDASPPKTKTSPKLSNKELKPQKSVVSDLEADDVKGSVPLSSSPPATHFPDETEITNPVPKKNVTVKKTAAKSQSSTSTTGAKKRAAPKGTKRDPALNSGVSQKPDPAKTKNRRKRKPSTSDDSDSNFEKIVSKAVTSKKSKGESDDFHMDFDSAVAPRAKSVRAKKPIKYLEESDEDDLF

`Cc1[nH]c(C(=O)Nc2nc3c(OC4CCNC4)cc(C(=O)O)cc3s2)c(Cl)c1Cl` (configuration not stated) showed an Activity [1] of 102%, an Activity [2] of 102% and an MIC90 [3] of 10 µM (≈ 4.55 µg/mL). The MIC90 [4] was greater than 20 µM, the MIC90 [5] was 2.5 µM (≈ 1.14 µg/mL) and the MIC90 (Pseudomonas aeruginosa) was greater than 130 µM. For the same compound, the MIC90 (Escherichia coli [6]) was 130 µM (≈ 59.2 µg/mL), the MIC90 (Acinetobacter baumannii) was greater than 130 µM and the MIC90 (Klebsiella pneumoniae) was greater than 130 µM. It also gave an MIC90 (Escherichia coli [7]) of 130 µM (≈ 59.2 µg/mL) and an MIC90 (Staphylococcus aureus) greater than 130 µM.

For `Cc1[nH]c(C(=O)Nc2nc3c(OCc4ccccc4)cc(C(=O)O)cc3s2)c(Cl)c1Cl`, the IC50 [8] was 5.1 nM and the Activity [9] was “inactive”.

In the case of `Cc1[nH]c(C(=O)Nc2nc3c(OC(CN4CCOCC4)c4ccccc4)cc(C(=O)O)cc3s2)cc1F` (configuration not stated), the MIC90 [3] is reported as 2.5 µM (≈ 1.31 µg/mL), the MIC90 [4] is reported as 10 µM (≈ 5.25 µg/mL) and the MIC90 [5] is reported as greater than 40 µM. The Activity (Staphylococcus aureus) was “inactive”.

`Cc1[nH]c(C(=O)Nc2nc3c(OC(CN4CC[N+](C)(C)CC4)c4ccccc4)cc(C(=O)O)cc3s2)c(Cl)c1Cl` (configuration not stated) gave an MIC90 [3] of 0.63 µM, an MIC90 [4] of 0.32 µM and an MIC90 [5] of 0.31 µM. For the same compound, the Activity (Staphylococcus aureus) was “inactive”.

With `C[C@H]1COc2c(N3CCN(C)CC3)c(F)cc3c(=O)c(C(=O)O)cn1c23` [LEVOFLOXACIN ANHYDROUS] the Activity [10] was 2.3%.

Compound `Cc1[nH]c(C(=O)Nc2nc3c(OC(CN(C)C)c4ccccc4)cc(C(=O)O)cc3s2)cc1F` (configuration not stated) has an Activity [1] of 99%, an MIC90 (Enterobacter cloacae) greater than 133 µM and an Activity [2] of 99%. For the same compound, the MIC90 [3] was 0.31 µM (≈ 0.15 µg/mL), the MIC90 [4] was 1.25 µM (≈ 0.603 µg/mL) and the MIC90 [5] was 2.5 µM (≈ 1.21 µg/mL). The MIC90 (Pseudomonas aeruginosa) was 33 µM (≈ 15.9 µg/mL), the MIC90 (Acinetobacter baumannii) was greater than 133 µM and the MIC90 (Klebsiella pneumoniae) was 2 µM (≈ 0.965 µg/mL). The MIC90 (Escherichia coli [7]) was 133 µM (≈ 64.2 µg/mL) and the MIC90 (Staphylococcus aureus) was 33 µM (≈ 15.9 µg/mL).

Compound `Cc1[nH]c(C(=O)Nc2nc3c(OCC(C)N(C)C)cc(C(=O)O)cc3s2)c(Cl)c1Cl` (configuration not stated) has an MIC90 [3] of 0.63 µM (≈ 0.297 µg/mL), an MIC90 [4] of 10 µM (≈ 4.71 µg/mL) and an MIC90 [5] of 40 µM (≈ 18.9 µg/mL).

In the case of `Cc1[nH]c(C(=O)Nc2nc3c(OC(C)CN(C)C)cc(C(=O)O)cc3s2)c(Cl)c1Cl` (configuration not stated), the MIC90 (Enterobacter cloacae) is reported as greater than 135 µM, the Activity [11] is reported as “inactive” and the Activity [12] is reported as “Dose-Dependent Effect”. The MIC90 [3] was 0.63 µM (≈ 0.297 µg/mL), the Activity [13] was “Non-Toxic” and the fraction unbound at 4 h, 10 µM [14] was 0.029. For the same compound, the MIC90 [4] was 0.63 µM (≈ 0.297 µg/mL), the Activity (THP-1 [15]) was “Non-Toxic” and the Activity (THP-1 [16]) was 34%. The MIC90 [5] was 2.5 µM (≈ 1.18 µg/mL), the fraction unbound at 4 h, 10 µM [17] was 0.047 and the MIC90 (Pseudomonas aeruginosa) was greater than 135 µM. For the same compound, the Activity [18] was “Non-Toxic”, the MIC (Anaerostipes hadrus) was greater than 20 µM and the MIC90 (Escherichia coli [6]) was 2 µM (≈ 0.943 µg/mL). The MIC90 (Acinetobacter baumannii) was greater than 135 µM, the MIC90 (Klebsiella pneumoniae) was 8 µM (≈ 3.77 µg/mL) and the solubility kinetic at 20 h, 100 µM [19] was 55 µM (≈ 25.9 µg/mL). The MIC90 (Escherichia coli [7]) was greater than 135 µM, the MIC90 (Staphylococcus aureus) was greater than 135 µM and the MIC (Segatella copri) was greater than 20 µM. The Activity [20] was “Non-Toxic” and the MIC [21] was greater than 20 µM.

`Cc1[nH]c(C(=O)Nc2nc3c(OC(CN(C)C)c4ccccc4)cc(C(=O)O)cc3s2)c(Cl)c1Cl` (configuration not stated) gave an MIC90 [3] of 0.63 µM (≈ 0.336 µg/mL), an MIC90 [4] of 0.16 µM (≈ 0.0853 µg/mL) and an MIC90 [5] of 1.25 µM (≈ 0.667 µg/mL).

Source: ChEMBL document CHEMBL5608207, “Development of narrow-spectrum topoisomerase-targeting antibacterials against mycobacteria” (Eur J Med Chem, 2024)
